Source: patent publication US6617122B1, “Process for identifying modulators of ABC1 activity” (Xenon Genetics, Inc., priority 1999, dated 2003)

What was measured:
[1] = system: ABC1; conditions: cited from earlier work
[2] = system: ABC1 mRNA; assay: ABC1 mRNA upon cholesterol loading; assay type: cell-based
[3] = target: ABC1 (Homo sapiens, UniProt O95477); conditions: cited from earlier work
[4] = system: cholesterol efflux; conditions: cited from earlier work

Sequence of ABC1 (Homo sapiens, UniProt O95477) (O95477 whole entry): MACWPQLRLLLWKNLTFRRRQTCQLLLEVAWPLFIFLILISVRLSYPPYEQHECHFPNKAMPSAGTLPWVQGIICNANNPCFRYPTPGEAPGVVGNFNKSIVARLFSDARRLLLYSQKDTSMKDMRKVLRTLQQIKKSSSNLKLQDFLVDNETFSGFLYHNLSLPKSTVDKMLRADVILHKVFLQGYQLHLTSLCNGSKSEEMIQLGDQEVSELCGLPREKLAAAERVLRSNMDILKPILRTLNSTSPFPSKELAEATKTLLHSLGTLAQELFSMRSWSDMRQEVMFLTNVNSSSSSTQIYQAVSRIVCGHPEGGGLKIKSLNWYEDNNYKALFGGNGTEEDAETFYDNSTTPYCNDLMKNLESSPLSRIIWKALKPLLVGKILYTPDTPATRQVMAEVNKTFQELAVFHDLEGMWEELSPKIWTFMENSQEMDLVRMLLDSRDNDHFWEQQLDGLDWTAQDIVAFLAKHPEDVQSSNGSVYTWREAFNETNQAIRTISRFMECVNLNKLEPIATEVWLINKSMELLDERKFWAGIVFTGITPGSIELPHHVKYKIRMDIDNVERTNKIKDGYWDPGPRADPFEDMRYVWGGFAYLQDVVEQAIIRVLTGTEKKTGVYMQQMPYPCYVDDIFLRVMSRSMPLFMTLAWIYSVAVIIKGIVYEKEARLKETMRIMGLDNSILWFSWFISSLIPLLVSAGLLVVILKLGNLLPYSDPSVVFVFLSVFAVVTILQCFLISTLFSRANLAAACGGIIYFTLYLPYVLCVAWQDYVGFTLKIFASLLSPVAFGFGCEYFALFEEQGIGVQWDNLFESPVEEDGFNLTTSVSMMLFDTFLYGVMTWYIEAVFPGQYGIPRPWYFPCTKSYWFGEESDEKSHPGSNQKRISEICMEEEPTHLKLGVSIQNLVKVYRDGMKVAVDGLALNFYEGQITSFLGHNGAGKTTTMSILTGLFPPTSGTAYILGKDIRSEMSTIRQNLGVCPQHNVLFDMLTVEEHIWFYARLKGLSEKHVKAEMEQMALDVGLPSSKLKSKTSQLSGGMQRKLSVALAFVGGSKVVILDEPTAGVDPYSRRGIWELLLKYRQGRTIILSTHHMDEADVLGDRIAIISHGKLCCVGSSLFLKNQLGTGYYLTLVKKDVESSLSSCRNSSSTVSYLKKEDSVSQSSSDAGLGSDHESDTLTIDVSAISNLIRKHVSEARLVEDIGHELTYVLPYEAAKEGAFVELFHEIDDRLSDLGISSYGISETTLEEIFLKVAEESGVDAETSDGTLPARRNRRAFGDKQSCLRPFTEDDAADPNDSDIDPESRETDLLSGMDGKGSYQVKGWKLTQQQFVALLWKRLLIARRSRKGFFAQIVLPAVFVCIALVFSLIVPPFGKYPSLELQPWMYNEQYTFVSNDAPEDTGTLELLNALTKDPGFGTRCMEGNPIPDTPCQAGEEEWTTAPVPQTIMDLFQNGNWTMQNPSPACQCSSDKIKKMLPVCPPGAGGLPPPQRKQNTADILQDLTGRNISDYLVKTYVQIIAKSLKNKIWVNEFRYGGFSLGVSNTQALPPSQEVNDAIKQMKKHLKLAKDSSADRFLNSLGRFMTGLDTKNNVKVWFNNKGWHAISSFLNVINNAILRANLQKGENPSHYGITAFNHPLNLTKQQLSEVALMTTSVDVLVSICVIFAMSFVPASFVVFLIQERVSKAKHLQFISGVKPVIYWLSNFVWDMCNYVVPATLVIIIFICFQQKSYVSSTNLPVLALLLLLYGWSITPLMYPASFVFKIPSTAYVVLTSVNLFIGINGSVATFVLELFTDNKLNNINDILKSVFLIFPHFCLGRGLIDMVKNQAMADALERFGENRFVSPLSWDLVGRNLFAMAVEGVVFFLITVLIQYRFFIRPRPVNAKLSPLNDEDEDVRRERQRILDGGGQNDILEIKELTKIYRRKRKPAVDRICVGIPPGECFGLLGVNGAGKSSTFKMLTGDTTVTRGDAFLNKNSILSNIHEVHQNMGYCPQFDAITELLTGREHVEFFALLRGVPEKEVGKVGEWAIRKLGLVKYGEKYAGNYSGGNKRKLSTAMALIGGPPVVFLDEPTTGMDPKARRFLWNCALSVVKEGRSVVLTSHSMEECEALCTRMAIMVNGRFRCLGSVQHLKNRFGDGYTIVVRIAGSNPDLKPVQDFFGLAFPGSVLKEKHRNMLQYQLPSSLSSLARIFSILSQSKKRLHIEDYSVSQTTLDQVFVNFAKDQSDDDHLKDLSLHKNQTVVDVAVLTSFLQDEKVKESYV

| SMILES | inhibition of ABC1 [1] | upregulation of ABC1 expression or biological activity [3] | also measured |
| --- | --- | --- | --- |
| O=S(=O)(O)c1cc(N=C=S)ccc1C=Cc1ccc(N=C=S)cc1S(=O)(=O)O [DIDS] | inhibit |  |  |
| CC(C)CCC[C@@H](C)[C@H]1CC[C@H]2[C@@H]3CC=C4C[C@@H](O)CC[C@]4(C)[C@H]3CC[C@]12C [cholesterol] |  |  | increase of ABC1 mRNA [2]: approximately 8 fold |
| [O]=[V]([O-])([O-])[O-] [vanadate] |  | upregulate |  |
| O=C1OC(c2ccc(O)c(S(=O)(=O)O)c2)(c2ccc(O)c(S(=O)(=O)O)c2)c2c(Br)c(Br)c(Br)c(Br)c21 [sulfobromophthalein] | inhibit |  |  |
| O=C(O)c1ccccc1Nc1ccccc1 [diphenylamine-2-carbonic acid] | inhibit |  |  |
| C=C1[C@@H](O)[C@@H]2O[C@]3(CC[C@H](/C=C/[C@@H](C)[C@@H]4CC(C)=C[C@@]5(O[C@H](C[C@@](C)(O)C(=O)O)CC[C@H]5O)O4)O3)CC[C@H]2O[C@@H]1[C@@H](O)C[C@H](C)[C@H]1O[C@@]2(CCCCO2)CC[C@H]1C [okadaic acid] |  | upregulate |  |
| COc1ccc(Cl)cc1C(=O)NCCc1ccc(S(=O)(=O)NC(=O)NC2CCCCC2)cc1 [glibenclamide] | inhibit |  |  |
| CC(C)Cn1c(=O)n(C)c(=O)c2[nH]cnc21 [IBMX1] |  | upregulate |  |
| O=C(O)c1ccccc1Nc1cccc(C(F)(F)F)c1 [flufenamic acid] | inhibit |  |  |
| C[C@H]1CCC/C=C/[C@@H]2C[C@H](O)C[C@H]2[C@H](O)/C=C/C(=O)O1 [Brefeldin] |  |  | cholesterol efflux [4]: significantly inhibits cholesterol efflux |
